The values below come from patent US20240389594A1 (priority 2020, published 2024).

Holding throughout (assay type): cell-based
The subject of experiment [1] is Septoria tritici. Particulars: 7 days.
In another experiment the test system is Pyricularia oryzae. Particulars: PYRIOR, single compound, 7 days.
For the next experiment, the system named is Alternaria solani. Nature of the experiment: Microtest, early blight caused by Alternaria solani (ALTESO), Example 1. Particulars: single compound, 7 days.
The test system of experiment [2] is Colletotrichum orbiculare. The experiment in a line: Microtiterplate test, anthracnose caused by Colletotrichum orbiculare (COLLLA), Example 1. The note with it: single compound, 7 days.
The next experiment relates to Botrytis cinerea.
In experiment [3] the test system is Septoria tritici. The experiment in a line: Microtest, leaf blotch on wheat caused by Septoria tritici (SEPTTR), Example 2. The note with it: single compound, 7 days.

Like-named read-outs stand apart in the source and are kept apart here.

With `CCC(=O)Oc1c(OC)ccnc1C(=O)N[C@@H](C)C(=O)O[C@@H](C)[C@@H](C)c1ccccc1C` [Compound II-1, [(1 S,2S)-1-methyl-2-(o-tolyl)propyl] (2S)-2-[(4-methoxy-3-propanoyloxy-pyridine-2-carbonyl)amino]propanoate], the Observed efficacy with Septoria tritici [1] came to 15%; with Pyricularia oryzae (1 ppm), 10%; in the experiment with Alternaria solani (1 ppm) it was 42%; in experiment [2] (0.25 ppm), 0%; in experiment [2] (1 ppm), 0%; with Botrytis cinerea, 13%.

In the experiment on Septoria tritici [3] (0.25 ppm), `CON(Cc1ccc(-c2noc(C(F)(F)F)n2)cc1)C(=O)C1CC1` [Compound II-2, N-methoxy-N-[[4-[5-(trifluoromethyl)-1,2,4-oxadiazol-3-yl]phenyl]methyl]cyclopropanecarboxamide] returned an Observed efficacy of 9%.

On to `Cc1cccc(-n2nnn(C)c2=O)c1COc1ccn(-c2ccc(Cl)cc2)n1` [Methyltetraprol, metyltetraprole], for which the Observed efficacy was 3% with Pyricularia oryzae (0.004 ppm); 11% with Pyricularia oryzae (0.016 ppm); 12% with Alternaria solani (0.004 ppm); 31% in the experiment on Alternaria solani (0.016 ppm); 0% in experiment [2] (0.063 ppm); 52% with Botrytis cinerea (7 days). Also, the Observed efficacy in the experiment on Septoria tritici [3] (0.004 ppm) is given as 0%.
